From US20120028288A1, “Method for Measuring Cell Motility and System Therefor” (priority 2005, published 2012) come the findings set out here.

The test system of assay [1] is eosinophils from normal, allergy/atopy and asthma patient donors. Nature of the assay: Chemotaxis analysis of eosinophils of allergy/atopy and asthma patients compared with normal subjects (TAXIScan; VD plot, CRT and CLT analysis).
In assay [2] the test system is eosinophils obtained from blood samples of normal subjects. Description: Eosinophil chemotactic experiment toward various chemotactic factors (time-lapse tracking; VD plot, CRT and CLT analysis). As to conditions: for rate of cells having a high specific motility in the concentration gradient direction in the VD plot / Chemotaxis Lifetime (CLT) / migration duration time, in words / Chemotactic Response Time (CRT) / time course of migration start, in words: normal subject eosinophils; for rate of cells having a high specific motility in the concentration gradient direction in the VD plot: CCL3, CCL5 5 μM, CXCL12, fMLP, PGD2 1 μM, vs control without factor (N.C.); for Chemotaxis Lifetime (CLT) / migration duration time, in words / Chemotactic Response Time (CRT) / time course of migration start, in words: concentration gradient of factor; for Chemotactic Response Time (CRT) / time course of migration start, in words: ACR viewed at 5 and 45 minutes.
Experimental: Blood samples were obtained from patients and normal subjects, after a confirmation of informed consent. The blood samples were subjected to hemolytic reaction by water treatment and centrifugal separation, repeated twice, and thereafter a magnetic cell separation method was conducted so as to separate eosinophil therefrom. MACS (Miltenyi Biotec GmbH, Germany) was used for the magnetic cell separation, and the separation was performed by the negative selection method using anti-human CD3, CD14, CD16, and CD19 antibody-labeled paramagnetic microbeads. The magnetic cell separation method was conducted pursuant to the manual of Miltenyi Biotec GmbH. The cells obtained were washed with PBS, and thereafter suspended in RPMI-HEPES culture medium containing 1% FCS at the concentration of 5×10^6 cells/ml, and used for the subsequent experiment.
Structural setting of the system and the measuring method were carried out according to the aforementioned procedure.
In the measurement, the observation support unit of the system was filled up with RPMI-HEPES medium containing 1% FCS, and maintained at 37° C. to have the cells and the chemotactic factor being injected, and thereafter, the state of the cells was subjected to the time-lapse imaging. […] Imaging was performed at time-lapse intervals of one minute, and twelve samples at the maximum per one holder were subjected to the imaging in parallel.
The aforementioned program was used for the identification and tracking of the cell. […] With this software, when a user highlighted an area in the image as an analysis target, the cells in the area were identified and tracking was executed. Automatic cell tracking was performed according to the following procedure; a positional change in the time-lapse image was corrected, and then a position of the cell being the closest in the adjacent time-frame photo was sequentially designated and stored. Since an error might be included in the automatic cell tracking, the migratory pathway of the cell being obtained was appropriately corrected based on a visual judgment by a human. […] According to the obtained migratory pathway information of the cells, one by one, time-series data such as the position, velocity, and directionality of the cells was acquired. In order to avoid exerting an effect of artificial bias on the data, a third person, who was not informed of the details of the experiment, conducted the cell identification and tracking works by using the present software.
VD plot (Velocity-Direction plot) was obtained by calculating median values, as to the values of the time-series data of the velocity and directionality of individual cells, plotting the median value of velocity on the vertical axis and the median value of directionality on the horizontal axis. A gate was set on the graph surface, indicating an index of the cellular chemotaxis, and a rate of the cells included in the gate was obtained. Mann-Whitney U-test was employed for a difference test concerning the rate of the cells.
In the calculation of Chemotactic Response Time (CRT) and of Chemotaxis Lifetime (CLT) of the cell, an Exponential Moving Average (EMA) was calculated based on time-series data of the cell migration velocity, and the cellular chemotaxis was defined by the state where the value of EMA exceeded a certain threshold. In other words, CRT was a time period from start of the measurement until the time when the EMA firstly exceeded the threshold, and an elapsed time from the time when EMA firstly exceeded the threshold until it fell below the threshold was CLT.

“Also recorded” adds a separate entry of the source.

Turning to `CSCC[C@H](NC=O)C(=O)N[C@@H](CC(C)C)C(=O)N[C@@H](Cc1ccccc1)C(=O)O` [fMLP, N-formyl-methionyl-leucyl-phenylalanine], in assay [1] (allergy/atopy patients and asthma patients vs normal subjects), the “rate of cells that continued migration for five minutes or more (CLT analysis), patients compared to normal subjects” value was “not found a significant difference”. For the same molecule, the “cell motility from VD plot, asthma patients (III) compared to normal subject (I)” value in assay [1] (eosinophils of asthma patients, PGD2 or fMLP 1 μM gradient) was “significant difference”. Further, the “CRT analysis: difference between patient groups and normal subjects” value in assay [1] (groups I, II, III) was “not a large difference”. In assay [2], the “rate of cells having a high specific motility in the concentration gradient direction in the VD plot” value (“rate … in the VD plot” below) is on record as “little difference from the control”; the “Chemotaxis Lifetime (CLT) / migration duration time, in words” value is “most of the cells stopped migration within 15 minutes; also recorded: relatively shorter than the other factors”; the “Chemotactic Response Time (CRT) / time course of migration start, in words” value is recorded as “started moving gradually as time advanced”. Also, in assay [2] (normal subjects), the “share of eosinophils that migrated according to the CRT analysis” value was “about half”.

B1: CCL5: Recombinant Human RANTES (CCL5; Regulation upon Activation Normal T cell Express Sequence), purchased from PeproTech (protein, UniProt P13501 24-91, looked up)
C-C motif chemokine 5: SPYSSDTTPCCFAYIARPLPRAHIKEYFYTSGKCSNPAVVFVTRKNRQVCANPEKKWVREYINSLEMS
On to B1, for which, in assay [2], the “rate … in the VD plot” value is “little difference from the control”; the “Chemotaxis Lifetime (CLT) / migration duration time, in words” value was “long lifetime tendency”; the “Chemotactic Response Time (CRT) / time course of migration start, in words” value is given as “hardly started migration; also recorded: turned up gradually after lapse of approximately one hour”.

B2: CCL3: Recombinant Human MIP-1 alpha (CCL3; Macrophage Inflammatory Protein-1 alpha), purchased from PeproTech (protein, UniProt P10147 24-92, looked up)
C-C motif chemokine 3: SLAADTPTACCFSYTSRQIPQNFIADYFETSSQCSKPGVIFLTKRSRQVCADPSEEWVQKYVSDLELSA
As to B2, in assay [2], the “rate … in the VD plot” value is listed as “high motility”; the “Chemotaxis Lifetime (CLT) / migration duration time, in words” value is “short relative to CCL5 or CXCL12”; the “Chemotactic Response Time (CRT) / time course of migration start, in words” value is given as “started moving gradually as time advanced”.
